In patent US6906205B2, “Spiro and dispiro 1,2,4-trioxolane antimalarials” (Medicines for Malaria Venture MMV, priority 2002, dated 2005):
Converted amounts (≈) assume the structure as drawn.

Key:
[1] = tested on: Schistosoma mansoni adult schistosomes (49-day-old); assay: effect on adult schistosomes (49-day-old) in mice; type: in vivo; conditions: for % reduction of adult worms growth at day 49 after per os application of 400 mg/kg, TWR (%) / adult worms at day 49, per os 400 mg/kg, DEAD WORM (%): single 400 mg/kg per os
Procedure: Mice were infected with 100 Schistosoma mansoni cercariae […]. Each group was treated per os with OZ compounds at single doses of 200, 400, and 600 mg/kg. […] All groups were killed 4 weeks after treatment and the liver and intestine were removed and separated. The liver and intestine were compressed and alive male and female worms could be seen and counted.

[2] = tested on: Schistosoma mansoni 21-day-old schistosomules; assay: effect on 21-day-old schistosomules in mice; type: in vivo; conditions: single 200 mg/kg per os, female mice
Procedure: All groups were killed 4 weeks after treatment and the liver and intestine were removed and separated. The liver and intestine were compressed and alive male and female worms could be seen and counted. The effect of the compounds was evaluated by mean total and female worm burden.

[3] = tested on: P. falciparum NF54 strain (sensitive to standard antimalarials); assay: semiautomated microdilution assay, [3H]-hypoxanthine incorporation, NF54 strain; type: cell-based, Plasmodium falciparum; conditions: NF54 strain, 72 h incubation
Procedure, shortened: (§1)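 Intraerythrocytic stages from unsynchronised stock cultures are exposed to test compounds in a semiautomated microdilution format, and fifty percent inhibitory concentrations are then fitted by logit regression.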

[4] = tested on: ANKA strain of P. berghei; assay: single dose STI in vivo screen in infected mice; parameters: species or system Plasmodium berghei; conditions: for Activity (%) po / Activity (%) sc / Activity (%) SSVpo / Activity (%) 3 mg/kg SSV po / Activity (%) 10 mg/kg SSV po: percent reduction in parasitemia day 3 post-infection; for Activity (%) po / Survival (days) po: single 10 mg/kg po in 3% ethanol and 7% Tween 80; for Activity (%) po / Activity (%) sc / Activity (%) SSVpo: mice; for Activity (%) sc / Survival (days) sc: single 10 mg/kg sc in 3% ethanol and 7% Tween 80; for Activity (%) SSVpo: single po dose in standard suspending vehicle (SSV); for Survival (days) po / Survival (days) sc / Survival (days) SSVpo: untreated control 5.6 ± 0.3; for Survival (days) SSVpo: single po dose in SSV; for Activity (%) 3 mg/kg SSV po / Survival (days) 3 mg/kg SSV po: single 3 mg/kg po in SSV; for Survival (days) 10 mg/kg SSV po / Activity (%) 10 mg/kg SSV po: single 10 mg/kg po in SSV
Procedure, shortened: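 Groups of 3-5 Moro SPF or NMRI mice infected with the ANKA strain of P. berghei received a single dose of trioxolane on day one post-infection. The compound was given in 3% ethanol and 7% Tween 80 or in SSV (0.5% w/v CMC, 0.5% v/v benzyl alcohol, 0.4% v/v Tween 80, 0.9% w/v sodium chloride in water). Antimalarial activity was scored as percent reduction in parasitemia on day three and as survival time versus untreated controls. Survival to day 30 counted as cure.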

[5] = tested on: P. falciparum K1 strain (Thailand resistant to chloroquine); assay: semiautomated microdilution assay, [3H]-hypoxanthine incorporation, K1 strain; type: cell-based, Plasmodium falciparum; conditions: K1 strain, 72 h incubation
Procedure, shortened: as §1

Structure (SMILES)	% reduction of adult worms growth at day 49 after per os application of 400 mg/kg, TWR (%) [1]	adult worms at day 49, per os 400 mg/kg, DEAD WORM (%) [1]	% reduction of schistosomule growth at day 21 after per os application of 200 mg/kg, FWR (%) [2] [%]	% reduction of schistosomule growth at day 21 after per os application of 200 mg/kg, TWR (%) [2] [%]	IC50 (ng/ml) NF54 [3] [ng/mL]	Activity (%) po [4]	Activity (%) sc [4]	Survival (days) po [4]	Survival (days) sc [4]	IC50 (ng/ml) K1 [5] [ng/mL]	Activity (%) 3 mg/kg SSV po [4] [%]	Survival (days) 10 mg/kg SSV po [4] [days]	other results
O=C(c1ccccc1)N1CCC2(CC1)OOC1(O2)C2CC3CC(C2)CC1C3 (stereo not shown) [OZ24]	21%	0%	61	65	0.58 (≈ 0.00157 µM)	93%	99.9%	7.0 days	8.7 days	0.35 (≈ 0.000947 µM)			Activity (%) SSVpo [4]: 66%; Survival (days) SSVpo [4]: 6.8 days
CCCC1CCC2(CC1)OOC1(O2)C2CC3CC(C2)CC1C3 (stereo not shown) [OZ25]	46%	34%	84	86	2.1 (≈ 0.00685 µM)	99.9%	99.97%	8.4 days	16.5 days	1.1 (≈ 0.00359 µM)			Activity (%) SSVpo [4]: 96%; Survival (days) SSVpo [4]: 7.2 days
O=[N+]([O-])c1ccc(NN=C2CCC3(CC2)OOC2(O3)C3CC4CC(C3)CC2C4)c([N+](=O)[O-])c1 (stereo not shown) [OZ29]	0/0%	0/0%	20	28	13 (≈ 0.0284 µM)	0/NA/0%	0/NA/0%	5.0/NA/5.0 days	5.0/NA/5.0 days	9.7 (≈ 0.0212 µM)			
CC1(C)COC2(CCC3(CC2)OOC2(CC(C)(C)CC(C)(C)C2)O3)OC1 [OZ36]	0/0%	0/0%	12	16	62 (≈ 0.168 µM)	0/NA/0%	0/NA/0%	5.7/NA/5.7 days	5.7/NA/5.7 days	24 (≈ 0.0651 µM)			
O=C(O)C1CCC2(CC1)OOC1(O2)C2CC3CC(C2)CC1C3 (stereo not shown) [OZ71]	0%	16%	85	91	3.7 (≈ 0.012 µM)					4.5 (≈ 0.0146 µM)			Activity (%) po ([4]; 10 mg/kg): 98%; Activity (%) sc ([4]; 10 mg/kg): 97%; Activity (%) SSVpo [4]: 98%; Survival (days) po ([4]; 10 mg/kg): 7.3 days; Survival (days) sc ([4]; 10 mg/kg): 8.3 days; Survival (days) SSVpo [4]: 6.7 days
C1CC2(CCN1)OOC1(O2)C2CC3CC(C2)CC1C3.Cl (stereo not shown) [OZ80]			75	79	0.34	59%	84%	6.3 days	7.7 days	0.15			% reduction of adult worms growth at day 49 after per os application of 200 mg/kg, TWR (%) ([1]; single 200 mg/kg per os): 0%; adult worms at day 49, per os 200 mg/kg, DEAD WORM (%) ([1]; single 200 mg/kg per os): 3%
CC(C)(N)C(=O)NC[C@H]1CC[C@]2(CC1)OOC1(O2)C2CC3CC(C2)CC1C3 (stereo partly shown) [OZ281]	12%	15%	90	91	0.30 (≈ 0.000793 µM)					0.50 (≈ 0.00132 µM)	96	8.7	Survival (days) 3 mg/kg SSV po [4]: 10.2 days
O=C1CN(C[C@H]2CC[C@]3(CC2)OOC2(O3)C3CC4CC(C3)CC2C4)CCN1 (stereo partly shown) [OZ285]	17%	22%	85	86	1.8 (≈ 0.00478 µM)					1.3 (≈ 0.00345 µM)	72	8.7	
Oc1ccc([C@H]2CC[C@]3(CC2)OOC2(O3)C3CC4CC(C3)CC2C4)cc1 (stereo partly shown) [OZ288]	52%	45%	96	95	2.7 (≈ 0.00757 µM)					1.7 (≈ 0.00477 µM)	82	11.0	
O=C1CN(C(=O)C[C@H]2CC[C@]3(CC2)OO[C@]2(O3)C3CC4CC(C3)CC2C4)CCN1 [OZ296]	1%	13%	85	85	0.89 (≈ 0.0022 µM)					0.60 (≈ 0.00148 µM)	90	10.0	
O=C(O)CNC[C@H]1CC[C@]2(CC1)OO[C@]1(O2)C2CC3CC(C2)CC1C3 [OZ309]	19%	17%	100	97	17 (≈ 0.0484 µM)					11 (≈ 0.0313 µM)	86	8.8	
O=C(O)C1CCN(C(=O)C[C@H]2CC[C@]3(CC2)OO[C@]2(O3)C3CC4CC(C3)CC2C4)CC1 [OZ312]	16%	9%	93	94	27 (≈ 0.0623 µM)					19 (≈ 0.0438 µM)	13	7.2	Activity (%) 10 mg/kg SSV po [4]: 43%
O=C(O)CC[C@H]1CC[C@]2(CC1)OO[C@]1(O2)C2CC3CC(C2)CC1C3 [OZ352]	16%	26%	91	89	20 (≈ 0.0594 µM)					19 (≈ 0.0565 µM)	77	8.2	Activity (%) 10 mg/kg SSV po [4]: 99.66%; Survival (days) 3 mg/kg SSV po [4]: 7.2 days
O=C(O)C(=O)NC[C@H]1CC[C@]2(CC1)OO[C@]1(O2)C2CC3CC(C2)CC1C3 [OZ360]	0/0%	0/0%	13	17	59 (≈ 0.161 µM)					58 (≈ 0.159 µM)	0	6.8	Activity (%) 10 mg/kg SSV po [4]: 38%; Survival (days) 3 mg/kg SSV po [4]: 6.2 days
